Source: patent US7709514B2, “Therapeutic molecules and methods-1” (Cortical Pty Ltd, priority 2002, dated 2010)
Entries after “also recorded” stand apart in the source; their conditions may differ. Read-outs that look alike come from different tables or passages of the source.

Assays:
[1] = tested on: murine peritoneal macrophage cytokine production; experiment: inhibition of peritoneal macrophage cytokine production (ELISA); type: cell-based, mice; details: Mus musculus
Protocol: C57BL6/J male mice were injected intraperitoneally with 2 ml of thioglycollate. Five (5) days later peritoneal macrophages were collected by lavaging the peritoneum of anaesthetized mice with 3 ml of cold Hanks buffered saline solution. Cells from several mice were pooled, washed and re-suspended in DMEM supplemented with 5% FCS. Cells were plated in 96 well plastic tissue culture plates at 1×10^5 cells/well. Cells were treated with compound or vehicle for 1 hour in a 5% CO2 incubator at 37° C. Cells were then treated with LPS (10-100 ng/ml) or recombinant human interferon-γ (10 units/ml) and incubated for 24 hours. After 24 hours, 50 μl of supernatant from each well was carefully removed and transferred to ELISA plates. The concentration of interleukin 1 (IL-1) or interleukin 6 (IL-6) was measured by ELISA. The concentration of compound at which LPS- or interferon-γ-induced cytokine release was suppressed by 50% compared to vehicle-only-treated cells (EC50) was calculated using Prism® software. Table 9 lists the EC50 for two compounds tested in this assay.

[2] = tested on: murine antigen induced arthritis; experiment: murine antigen-induced arthritis, histological score; type: in vivo, mice
Protocol: Antigen-induced arthritis was induced in mice. C57BL6/J male mice, aged 7-10 weeks old, were immunized on day 0 with 200 μg methylated BSA (mBSA) emulsified in 200 μl of Freund's complete adjuvant (FCA) injected subcutaneously into the flank skin. Mice were treated with compound 5, administered by intraperitoneal injection, once per 24 hours at a dose of 15 mg/kg body weight. After seven days, mice received 100 μg mBSA and 100 μl FCA by intradermal injection at the base of the tail. After a further 14 days, arthritis was induced by intra-articular injection of 30 μg mBSA in 10 μl of sterile saline into the left knee, the right knee being injected with sterile saline alone.
Arthritis was analysed histologically at day 28 after first immunisation. Knee joints were dissected and fixed in 10% buffered formalin for 7 days. Fixed tissues were decalcified for 3 weeks in 15% ethylene-diamine-tetra-acetic acid (EDTA), dehydrated and embedded in paraffin. Sagittal sections (5 μm) of the knee joint were stained with Safranin-O and counterstained with fast green/iron hematoxylin. Histological sections were scored from 0 to 3 for four parameters: Synovitis was defined as hyper-cellularity of the synovium including pannus formation. Joint space exudate was identified as leukocytes, discretely or in aggregates, in the joint space. Cartilage degradation was defined as the loss of Safranin-O staining of articular cartilage (0=full stained cartilage, 3=totally unstained cartilage). Bone damage was defined as the extent and depth of the subchondral bone invasion by pannus. A total score was also generated from the sum of these four parameters (maximum 12).

[3] = tested on: IL-1-induced COX-2 expression; experiment: IL-1-induced COX-2 expression in S112 human dermal fibroblasts (MIF-dependent bioassay); type: cell-based
Protocol: The activity of compounds was studied in a bioassay utilising MIF-dependent activation of human dermal fibroblasts. […] IL-1-induced COX-2 expression is therefore a MIF-dependent event. […] Prior to experimentation, cells were seeded at 10^5 cells/ml in RPMI/0.1% BSA for 18 hours. […] After 6 hours, cells were collected and intracellular COX-2 protein determined by permeabilisation flow cytometry. […] Cellular fluorescence was determined using a flow cytometer. At least 5000 events were counted for each reading, each of which was performed in duplicate, and the results expressed in mean fluorescence intensity (MFI) after subtraction of negative control-labelled cell fluorescence. The effect of each compound was determined by subtracting the IL-1+compound-treated cell MFI from the IL-1-treated cell (control) MFI and expressed as % inhibition. In each case the % inhibition of IL-1-induced COX-2 expression is expressed as the mean, or mean±SEM where results are available from multiple experiments.

[4] = tested on: lymph node and splenic T cells; experiment: ex vivo antigen-specific T cell activation after in vivo treatment; design: species or system mice
Text: In vivo administration of such a compound might be expected to exert effects on T cell responsiveness even after the T cells have been removed from exposure to the compound, that is, if T cells were studied ex vivo after in vivo treatment with the MIF antagonist compound. To measure ex vivo antigen-specific T cell activation, draining lymph nodes from arthritic limbs or spleens were removed from mice with murine antigen induced arthritis, induced as above with mBSA, at day 28 after first immunisation and a single cell suspension prepared in DMEM containing 5% FCS and 0.05% 2-mercaptoethanol. 1×10^5 cells/200 μl were cultured in triplicate in the presence or absence of mBSA (0.1, 1.0, 10 μg/ml) in 96-well plates for 48 hours (37° C., 5% CO2.) The T cell proliferation response was determined by measuring ^3H-thymidine incorporation during the final 18 hr. The cells were harvested and radioactivity incorporation into the DNA was measured with a Wallac 1409 liquid scintillation counter. The means of each triplicate culture were calculated. Each experiment comprised at least three individual animals and the results presented represent the mean±SEM of groups of animals in each experiment. The percentage inhibition of T cell proliferation was calculated using the result of the […] incorporation of cells from compound-treated animals subtracted from the ^3H-thymidine incorporation of cells from vehicle-treated animals.

[5] = tested on: antigen-specific T cell activation; experiment: antigen-specific (mBSA) activation of splenic T lymphocytes, 3H-thymidine incorporation; type: cell-based, mice; details: Mus musculus, T-cell, read-out: EC50, inhibition of T cell activation
Protocol: C57BL6/J male mice, aged 7-10 weeks old, were immunised with 200 μg of methylated bovine serum albumin (mBSA) dissolved in 20 μL of saline, emulsified in 200 μL of Freund's complete adjuvant (FCA) by subcutaneous injection. Seven (7) days later mice received a booster immunisation with 100 μg mBSA in 10 μL saline plus 100 μL FCA by subcutaneous injection. After a further seven (7) days mice were killed and spleens collected aseptically into Hanks buffered saline solution (HBSS). A single cell suspension was prepared in Petri dishes by flushing DMEM using a 26G needle and 2 mL syringe. The resulting cell suspension was centrifuged for 5-7 minutes and supernatant discarded. Erythrocytes were lysed using a solution containing 0.579% NH4Cl, 0.000037% EDTA, and 0.1% NaHCO3 in a 37° C. water bath. Tubes were then filled with DMEM and centrifuged for 5-7 minutes. The cell-containing pellet was then resuspended in DMEM containing 5% fetal calf serum TICS) and 0.05% 2-mercapto-ethanol at a concentration of 1×10^6 cells/mL and plated at 1×10^5 cells/well in 96-well plastic tissue culture plates. Test substances (compound or vehicle) were added and incubated for 1 hour in a 37° C., 5% CO2 incubator. The specific stimulating antigen, mBSA, was then added at 10-50 μg/ml and plates incubated for 30 hours in a 37° C., 5% CO2 incubator. Tritiated ^3H-thymidine was then added at a concentration of 0.5 μCi/well for a further 18 hours. Cells were harvested on a Packard cell harvester, and the harvested material added to 750 μL/tube scintillation fluid. Scintillation counts were read on a Wallac beta-emission counter.
The concentration at which T cell activation was suppressed by 50% compared to vehicle-only-treated cells (EC50) was calculated using Prism® software. […] Further compounds were also tested for their ability to inhibit antigen-specific T cell activation as a marker of the inhibition of the cytokine or biological activity of MIF using this assay. Table 5 lists the EC50 for each compound in this assay, performed with concentrations of mBSA of either 50 or 10 μg/ml.

[6] = tested on: IL-1 induced phosphorylation of ERK; experiment: IL-1 induced phosphorylation (activation) of ERK, Western blotting; type: cell-based, human; details: dexamethasone 10^-9 M alone; human dermal fibroblasts, IL-1 0.1 ng/ml, 30 minutes
Protocol: S112 human dermal fibroblasts cultured in RPMI (serum-free) medium were stimulated with recombinant human IL-1 0.1 ng/ml, as described herein, for 30 minutes, with or without the addition of dexamethasone 10^−9M or benzimidazol-2-one-5-pentanoate (compound 5) (50 μM). The phosphorylation (activation) of ERK was assessed using Western blotting with a mAb specific for the phosphorylated (activated) form of ERK. In brief, cells were disrupted by repeated aspiration through a 21-gauge needle. After incubation on ice for 10 min and microcentrifugation at 3000 rpm for 15 min (4° C.), the supernatants were removed, the protein concentration was determined, and the lysates were stored at −80° C. Equal amounts of cellular proteins were fractionated on 10% SDS-polyacrylamide electrophoresis gels and transferred to polyvinylidene difluoride membranes. Immunoblotting was performed using antibodies directed against phospho-p44/42 (ERK) and total p44142 according to the manufacturer's instructions. The intensity of ERK activation is proportional to the size and optical density (darkness) of the resulting blots. Total ERK blots serve as a loading control, such that changes in phosphorylated ERK represent changes in phosphorylation and not in total ERK protein.

EC50 ([1]; Interferon-γ 10 units/ml, read-out: EC50, IL-6 release) [µM] | EC50 ([1]; [LPS] 100 ng/mL, read-out: EC50, IL-1 release) [µM] | EC50 ([5]; mBSA 10 μg/ml) [µM] | EC50 ([5]; mBSA 50 μg/ml) [µM] | Structure (SMILES) | Total arthritis score (mean ± SEM) ([2]; maximum 12, vehicle 6.25 ± 0.2) | severity of murine antigen induced arthritis ([2]; mouse, in vivo) | inhibition at 1 µM ([3]; Homo sapiens, Fibroblast, compound 1 μM, S112 cells, IL-1 0.1 ng/ml, 6 hours) [%] | inhibition at 10 µM ([3]; Homo sapiens, Fibroblast, compound 10 μM, S112 cells, IL-1 0.1 ng/ml, 6 hours) [%] | inhibition at 50 µM ([3]; Homo sapiens, Fibroblast, compound 50 μM, S112 cells, IL-1 0.1 ng/ml, 6 hours, read-out: % inhibition of IL-1-induced COX-2 expression) [%] | inhibition at 100 µM ([3]; Homo sapiens, Fibroblast, compound 100 μM, S112 cells, IL-1 0.1 ng/ml, 6 hours) [%] | ex vivo splenic T cell proliferation in response to mBSA ([4]; FIG. 11b, table 7, vs vehicle) | % inhibition of ex vivo splenic T cell activation ([4]; [mBSA] 10 μg/mL) [%] | ERK activation by IL-1 [6] | % Inhibition of IL-1 induced COX-2 expression ([3]; Table 2 experiment, dexamethasone 10^-9 M alone) [%]
9.82 | 16.7 | 53.3 | 71.7 | O=C(NCCc1ccc(O)c(O)c1)c1ccc2[nH]c(=O)[nH]c2c1 [Compound 13, N-(3,4-dihydroxyphenethyl)-2-oxo-2,3-dihydro-1H-1,3-benzimidazole-5-carboxamide] | 5.17 ± 1.9 | inhibitory effect | 9.6 | 14.1 | 32.2 | 29.9 | reduced proliferative responses | 28 |  | 
 |  |  |  | C[C@@H]1C[C@H]2[C@@H]3CCC4=CC(=O)C=C[C@]4(C)[C@@]3(F)[C@@H](O)C[C@]2(C)[C@@]1(O)C(=O)CO [Dexamethasone, dexamethasone] |  |  |  |  |  |  |  |  | does not inhibit; also recorded: not inhibited | 46.8
